Results taken from ChEMBL document CHEMBL1255322, “In vivo therapeutic effect of gatifloxacin on BALB/c mice infected with Nocardia brasiliensis” (Antimicrob Agents Chemother, 2008).
≈ marks a conversion by molar mass, not a printed value. Calls of active or inactive are those of the source. The rule behind the calls is not given here.

Columns and labels:
Nocardia brasiliensis [1] = assay: Antimicrobial activity against Nocardia brasiliensis HUJEG-1 by broth macrodilution method; format: functional
Nocardia brasiliensis [2] = assay: Antimicrobial activity against Nocardia brasiliensis HUJEG-1 infected in BALB/c mouse assessed as decrease in number of lesions on foot-pad at 100 mg/kg, sc TID for 4 weeks; format: functional, organism-based; parameters: dose 100 mg/kg
[3] = Cmax in BALB/c mouse serum at 100 mg/kg, sc TID for 4 weeks by HPLC method; format: ADME, organism-based; parameters: dose 100 mg/kg, route subcutaneous
Nocardia brasiliensis [4] = assay: Antimicrobial activity against Nocardia brasiliensis HUJEG-1 infected in BALB/c mouse assessed as decrease in number of lesions on foot-pad at 25 mg/kg, sc TID for 4 weeks; format: functional, organism-based; parameters: dose 25 mg/kg
[5] = Cmax in BALB/c mouse serum at 25 mg/kg, sc TID for 4 weeks by HPLC method; format: ADME, organism-based; parameters: dose 25 mg/kg, route subcutaneous

Row | Structure (SMILES) | Activity (Nocardia brasiliensis [1]) | MIC (Nocardia brasiliensis [1]) [µg/mL] | also measured
1 | COc1c(N2C[C@@H]3CCCN[C@@H]3C2)c(F)cc2c(=O)c(C(=O)O)cn(C3CC3)c12 | Active | – | –
2 | C[C@H]1NCc2cc(-c3ccc4c(=O)c(C(=O)O)cn(C5CC5)c4c3OC(F)F)ccc21 | Active | – | –
3 | COc1c(N2CCNC(C)C2)c(F)cc2c(=O)c(C(=O)O)cn(C3CC3)c12 (stereo not drawn) [GATIFLOXACIN] | – | 0.25 (≈ 0.666 µM) | Activity (Nocardia brasiliensis [2]): Active; Cmax [3]: 18000 ng/mL
4 | CC(=O)NC[C@H]1CN(c2ccc(N3CCOCC3)c(F)c2)C(=O)O1 [LINEZOLID] | – | 0.12 (≈ 0.356 µM) | Activity (Nocardia brasiliensis [4]): inactive; Cmax [5]: 50000 ng/mL
